# Laboratory results from patent publication US20260159520A1, “HETEROBIFUNCTIONAL COMPOUNDS AND METHODS OF TREATING DISEASE” (Halda Therapeutics OpCo, Inc., priority 2022, published 2026).
# Columns and labels:
# Type in all cases: cell-based
# [1] = test system: T-Rex 293 cell line SC3 cells having increased expression of androgen receptor protein; assay: Cellular growth inhibition, T-Rex 293 SC3 cells with doxycycline (increased androgen receptor expression); details: with 10 ng/mL doxycycline (increased androgen receptor), 72 hours, CellTiter-Glo 2.0
# Summary of the method: (§1)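 Growth inhibition is measured in an inducible AR-expressing T-Rex 293 clone, SC3, cultured with or without 10 ng/mL doxycycline in hormone-depleted medium. Test compounds are applied for 72 hours. GI50 values derive from CellTiter-Glo 2.0 signal fitted by four-parameter regression.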
# T47D cells = assay: Cellular growth inhibition assay for T47D cells; details: Homo sapiens, 72 hours, CellTiter-Glo 2.0
# Summary of the method: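 Cells are plated at 3000/well and allowed 24 h before treatment. Test compound in medium containing 0.5% DMSO is then added, with DMSO-only wells as negative control, and plates are incubated 72 h at 37 °C. ATP luminescence (CellTiter-Glo 2.0) is then fitted to four parameters to derive GI50.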
# [2] = test system: T-Rex 293 cell line SC3 cells lacking increased expression of androgen receptor protein; assay: Cellular growth inhibition, T-Rex 293 SC3 cells without doxycycline; details: not exposed to doxycycline, 72 hours, CellTiter-Glo 2.0
# Summary of the method: as §1
# VCaP cells = assay: Cellular growth inhibition assay for VCaP cells; details: Homo sapiens, 72 hours, CellTiter-Glo 2.0
SMILES,GI50 [1] [nM],GI50 (T47D cells) [nM],GI50 [2] [nM],GI50 (VCaP cells) [nM]
CCc1cnn2c(NCc3ccc(OCCN(C)c4ncc(C(=O)N[C@H]5C(C)(C)[C@H](Oc6ccc(C#N)c(Cl)c6)C5(C)C)cn4)nc3)cc(N3CCCC[C@H]3CCO)nc12 [Compound I-1],100 to 1000,500 to 1500,100 to 1000,
CCc1cnn2c(NCc3ccc(OCCOCCOCCOCCOCCN(C)c4ncc(C(=O)N[C@H]5C(C)(C)[C@H](Oc6ccc(C#N)c(Cl)c6)C5(C)C)cn4)nc3)cc(N3CCCC[C@H]3CCO)nc12 [Compound I-3],< 100,,100 to 1000,< 100
"CCc1cnn2c(NCc3ccc(=O)n(CCOCCOCCOCCOCCOCCOCCN(C)c4ncc(C(=O)N[C@H]5C(C)(C)[C@H](Oc6ccc(C#N)c(Cl)c6)C5(C)C)cn4)c3)cc(N3CCCC[C@H]3CCO)nc12 [Compound I-4, N-((1r,3r)-3-(3-chloro-4-cyanophenoxy)-2,2,4,4-tetramethylcyclobutyl)-2-((20-(5-(((3-ethyl-5-((S)-2-(2-hydroxyethyl)piperidin-1-yl)pyrazolo[1,5-a]pyrimidin-7-yl)amino)methyl)-2-oxopyridin-1(2H)-yl)-3,6,9,12,15,18-hexaoxaicosyl)(methyl)amino)pyrimidine-5-carboxamide]",100 to 1000,,100 to 1000,
CCc1cnn2c(NCc3ccc(OCCOCCOCCOCCOCCOCCOCCN(C)c4ncc(C(=O)N[C@H]5C(C)(C)[C@H](Oc6ccc(C#N)c(Cl)c6)C5(C)C)cn4)nc3)cc(N3CCCC[C@H]3CCO)nc12 [Compound I-5],100 to 1000,,1000 to 3500,
"CCc1cnn2c(NCc3ccc(OCCOC4CCN(c5ncc(C(=O)N[C@H]6C(C)(C)[C@H](Oc7ccc(C#N)c(Cl)c7)C6(C)C)cn5)CC4)nc3)cc(N3CCCC[C@H]3CCO)nc12 [Compound I-7, N-((1r,3r)-3-(3-chloro-4-cyanophenoxy)-2,2,4,4-tetramethylcyclobutyl)-2-(4-(2-((5-(((3-ethyl-5-((S)-2-(2-hydroxyethyl)piperidin-1-yl)pyrazolo[1,5-a]pyrimidin-7-yl)amino)methyl)pyridin-2-yl)oxy)ethoxy)piperidin-1-yl)pyrimidine-5-carboxamide]",> 3500,> 3000,> 3500,1000 to 3500
CCc1cnn2c(NCc3ccc(OCCOCCOCCOC4CCN(c5ncc(C(=O)N[C@H]6C(C)(C)[C@H](Oc7ccc(C#N)c(Cl)c7)C6(C)C)cn5)CC4)nc3)cc(N3CCCC[C@H]3CCO)nc12 [Compound I-8],< 100,< 500,100 to 1000,< 100
CCc1cnn2c(NCc3ccc(OCCOCCOCCOCCOCCOC4CCN(c5ncc(C(=O)N[C@H]6C(C)(C)[C@H](Oc7ccc(C#N)c(Cl)c7)C6(C)C)cn5)CC4)nc3)cc(N3CCCC[C@H]3CCO)nc12 [Compound I-9],< 100,,100 to 1000,< 100
"CC1(C)[C@H](NC(=O)c2cnc(N3CCC(OCCNS(=O)(=O)c4ccc(Nc5ncc(Br)c(Nc6cccc(F)c6C(N)=O)n5)cc4)CC3)nc2)C(C)(C)[C@H]1Oc1ccc(C#N)c(Cl)c1 [Compound I-13, 2-(4-(2-((4-((5-bromo-4-((2-carbamoyl-3-fluorophenyl)amino)pyrimidin-2-yl)amino)phenyl)sulfonamido)ethoxy)piperidin-1-yl)-N-((1 r,3r)-3-(3-chloro-4-cyanophenoxy)-2,2,4,4-tetramethylcyclobutyl)pyrimidine-5-carboxamide]",> 3500,< 500,> 3500,
CCc1cnn2c(NCc3ccc(OCCCCOCCOC4CCN(c5ncc(C(=O)N[C@H]6C(C)(C)[C@H](Oc7ccc(C#N)c(Cl)c7)C6(C)C)cn5)CC4)nc3)cc(N3CCCC[C@H]3CCO)nc12 [Compound I-34],< 100,,> 3500,< 100
CCc1cnn2c(NCc3ccc(OCCN4CCN(CC5CCN(c6ncc(C(=O)N[C@H]7C(C)(C)[C@H](Oc8ccc(C#N)c(Cl)c8)C7(C)C)cn6)CC5)CC4)nc3)cc(N3CCCC[C@H]3CCO)nc12 [Compound I-41],< 100,< 500,100 to 1000,< 100
CCc1cnn2c(NCc3ccc(COCCN4CCN(CC5CCN(c6ncc(C(=O)N[C@H]7C(C)(C)[C@H](Oc8ccc(C#N)c(Cl)c8)C7(C)C)cn6)CC5)CC4)nc3)cc(N3CCCC[C@H]3CCO)nc12 [Compound I-42],< 100,< 500,100 to 1000,< 100
CCc1cnn2c(NCc3ccc(OCCCCN4CCN(CC5CCN(c6ncc(C(=O)N[C@H]7C(C)(C)[C@H](Oc8ccc(C#N)c(Cl)c8)C7(C)C)cn6)CC5)CC4)nc3)cc(N3CCCC[C@H]3CCO)nc12 [Compound I-43],< 100,< 500,100 to 1000,< 100
"CCc1cnn2c(NCc3ccc(OCCOCCOCCOC4CCN(c5ccc(C(=O)N[C@H]6C(C)(C)[C@H](Oc7ccc(C#N)c(Cl)c7)C6(C)C)nn5)CC4)nc3)cc(N3CCCC[C@H]3CCO)nc12 [Compound I-44, N-((1r,3r)-3-(3-chloro-4-cyanophenoxy)-2,2,4,4-tetramethylcyclobutyl)-6-(4-(2-(2-(2-((5-(((3-ethyl-5-((S)-2-(2-hydroxyethyl)piperidin-1-yl)pyrazolo[1,5-a]pyrimidin-7-yl)amino)methyl)pyridin-2-yl)oxy)ethoxy)ethoxy)ethoxy)piperidin-1-yl)pyridazine-3-carboxamide]",100 to 1000,< 500,100 to 1000,
CCc1cnn2c(NCc3ccc(OCCOCC4CCN(CC5CCN(c6ncc(C(=O)N[C@H]7C(C)(C)[C@H](Oc8ccc(C#N)c(Cl)c8)C7(C)C)cn6)CC5)CC4)nc3)cc(N3CCCC[C@H]3CCO)nc12 [Compound I-45],< 100,,100 to 1000,< 100
CCc1cnn2c(NCc3ccc(OC4CCN(CC5CCN(c6ncc(C(=O)N[C@H]7C(C)(C)[C@H](Oc8ccc(C#N)c(Cl)c8)C7(C)C)cn6)CC5)CC4)nc3)cc(N3CCCC[C@H]3CCO)nc12 [Compound I-46],< 100,< 500,100 to 1000,100 to 1000
"CCc1cnn2c(NCc3ccc(OCCN4CCN(CC5CCN(c6ncc(C(=O)N[C@H]7C(C)(C)[C@H](Oc8ccc(C#N)c(Cl)c8)C7(C)C)cn6)CC5)CC4)nc3)cc(-c3ccccc3)nc12 [Compound I-47, N-((1r,3r)-3-(3-chloro-4-cyanophenoxy)-2,2,4,4-tetramethylcyclobutyl)-2-(4-((4-(2-((5-(((3-ethyl-5-phenylpyrazolo[1,5-a]pyrimidin-7-yl)amino)methyl)pyridin-2-yl)oxy)ethyl)piperazin-1-yl)methyl)piperidin-1-yl)pyrimidine-5-carboxamide]",100 to 1000,> 3000,> 3500,> 3500
CCc1cnn2c(NCc3ccc(OCC4CCN(CC5CCN(c6ncc(C(=O)N[C@H]7C(C)(C)[C@H](Oc8ccc(C#N)c(Cl)c8)C7(C)C)cn6)CC5)CC4)nc3)cc(N3CCCC[C@H]3CCO)nc12 [Compound I-51],< 100,< 500,100 to 1000,< 100
"CCc1cnn2c(NCc3ccc(OCCCN4CCN(CC5CCN(c6ccc(C(=O)N[C@H]7C(C)(C)[C@H](Oc8ccc(C#N)c(Cl)c8)C7(C)C)cn6)CC5)CC4)nc3)cc(N3CCCC[C@@H]3CCO)nc12 [Compound I-55, N-((1r,3r)-3-(3-chloro-4-cyanophenoxy)-2,2,4,4-tetramethylcyclobutyl)-6-(4-((4-(3-((5-(((3-ethyl-5-((R)-2-(2-hydroxyethyl)piperidin-1-yl)pyrazolo[1,5-a]pyrimidin-7-yl)amino)methyl)pyridin-2-yl)oxy)propyl)piperazin-1-yl)methyl)piperidin-1-yl)nicotinamide]",< 100,< 500,100 to 1000,< 100
CCc1cnn2c(NCc3ccc(OCCCN4CCN(C5CN(c6ncc(C(=O)N[C@H]7C(C)(C)[C@H](Oc8ccc(C#N)c(Cl)c8)C7(C)C)cn6)C5)CC4)nc3)cc(N3CCCC[C@H]3CCO)nc12 [Compound I-60],< 100,< 500,< 100,< 100
CCc1cnn2c(NCc3ccc(OCCCN4CCC(C5CN(c6ncc(C(=O)N[C@H]7C(C)(C)[C@H](Oc8ccc(C#N)c(Cl)c8)C7(C)C)cn6)C5)CC4)nc3)cc(N3CCCC[C@H]3CCO)nc12 [Compound I-61],< 100,< 500,100 to 1000,< 100
CCc1cnn2c(NCc3ccc(N4CCC(CN5CCC6CN(c7ncc(C(=O)N[C@H]8C(C)(C)[C@H](Oc9ccc(C#N)c(Cl)c9)C8(C)C)cn7)CCC6C5)CC4)nc3)cc(N3CCCC[C@H]3CCO)nc12 (stereo partly drawn) [Compound I-71],< 100,1500 to 3000,> 3500,1000 to 3500
CCc1cnn2c(NCc3ccc(N4CC(OCCN5CC6CN(c7ncc(C(=O)N[C@H]8C(C)(C)[C@H](Oc9ccc(C#N)c(Cl)c9)C8(C)C)cn7)CC6C5)C4)nc3)cc(N3CCCC[C@H]3CCO)nc12 (stereo partly drawn) [Compound I-72],100 to 1000,1500 to 3000,100 to 1000,100 to 1000
"CC(C)n1cc(-c2ccnc3[nH]c(C4CCN(CCN5CCN(CC6CCN(c7ncc(C(=O)NC8C(C)(C)C(Oc9ccc(C#N)c(Cl)c9)C8(C)C)cn7)CC6)CC5)CC4)cc23)ccc1=O (stereo not drawn) [Compound I-74, N-[3-(3-chloro-4-cyano-phenoxy)-2,2,4,4-tetramethyl-cyclobutyl]-2-[4-[[4-[2-[4-[4-(1-isopropyl-6-oxo-3-pyridyl)-1H-pyrrolo [2,3-b]pyridin-2-yl]-1-piperidyl]ethyl]piperazin-1-yl]methyl]-1-piperidyl]pyrimidine-5-carboxamide]",< 100,< 500,100 to 1000,< 100
